Results as given in patent publication US20180147301A1, “SOLID ORAL COMPOSITION CONTAINING DYES” (COSMO TECHNOLOGIES LTD., priority 2016, published 2018).

Assays:
P-gp [1] = target: T1, P-gp (Homo sapiens, UniProt P08183); experiment: in vitro transporter substrate study; format: in vitro ADME
P-gp [2] = target: T1, P-gp; experiment: in vitro transporter inhibition study; format: in vitro ADME
CYP 1A2 = target: T2, CYP 1A2 (Homo sapiens, UniProt P05177)
T2 sequence (P05177 1-516): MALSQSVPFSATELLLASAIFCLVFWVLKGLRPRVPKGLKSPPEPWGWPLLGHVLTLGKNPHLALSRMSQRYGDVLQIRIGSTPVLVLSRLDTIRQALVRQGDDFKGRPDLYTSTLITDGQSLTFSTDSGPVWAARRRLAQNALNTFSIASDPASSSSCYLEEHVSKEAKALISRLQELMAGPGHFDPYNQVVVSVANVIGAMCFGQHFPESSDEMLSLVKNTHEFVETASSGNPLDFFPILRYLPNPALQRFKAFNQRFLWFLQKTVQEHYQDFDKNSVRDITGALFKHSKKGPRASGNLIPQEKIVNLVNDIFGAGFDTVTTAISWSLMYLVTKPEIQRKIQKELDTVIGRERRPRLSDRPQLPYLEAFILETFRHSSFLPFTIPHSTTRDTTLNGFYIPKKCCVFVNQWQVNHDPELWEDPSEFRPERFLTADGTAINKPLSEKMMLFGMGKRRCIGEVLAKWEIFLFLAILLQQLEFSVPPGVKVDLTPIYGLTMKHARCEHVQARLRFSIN

CYP 2B6 = target: T3, CYP 2B6 (Homo sapiens, UniProt P20813)
T3 sequence (P20813 1-491): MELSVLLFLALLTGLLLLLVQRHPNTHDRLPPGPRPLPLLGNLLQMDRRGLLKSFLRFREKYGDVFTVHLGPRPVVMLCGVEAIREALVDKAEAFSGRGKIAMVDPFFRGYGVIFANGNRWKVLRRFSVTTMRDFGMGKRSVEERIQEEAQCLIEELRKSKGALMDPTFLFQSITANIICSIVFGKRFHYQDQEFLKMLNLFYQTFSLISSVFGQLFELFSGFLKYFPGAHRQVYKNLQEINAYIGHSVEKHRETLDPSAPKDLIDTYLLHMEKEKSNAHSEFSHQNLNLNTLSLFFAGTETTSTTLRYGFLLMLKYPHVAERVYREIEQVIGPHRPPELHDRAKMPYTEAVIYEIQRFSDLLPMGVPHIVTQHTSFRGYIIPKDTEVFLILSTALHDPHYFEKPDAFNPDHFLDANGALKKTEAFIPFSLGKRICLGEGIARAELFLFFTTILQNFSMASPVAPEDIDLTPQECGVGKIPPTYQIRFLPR

CYP 2C8 = target: T4, CYP 2C8 (Homo sapiens, UniProt P10632)
T4 sequence (P10632 1-490): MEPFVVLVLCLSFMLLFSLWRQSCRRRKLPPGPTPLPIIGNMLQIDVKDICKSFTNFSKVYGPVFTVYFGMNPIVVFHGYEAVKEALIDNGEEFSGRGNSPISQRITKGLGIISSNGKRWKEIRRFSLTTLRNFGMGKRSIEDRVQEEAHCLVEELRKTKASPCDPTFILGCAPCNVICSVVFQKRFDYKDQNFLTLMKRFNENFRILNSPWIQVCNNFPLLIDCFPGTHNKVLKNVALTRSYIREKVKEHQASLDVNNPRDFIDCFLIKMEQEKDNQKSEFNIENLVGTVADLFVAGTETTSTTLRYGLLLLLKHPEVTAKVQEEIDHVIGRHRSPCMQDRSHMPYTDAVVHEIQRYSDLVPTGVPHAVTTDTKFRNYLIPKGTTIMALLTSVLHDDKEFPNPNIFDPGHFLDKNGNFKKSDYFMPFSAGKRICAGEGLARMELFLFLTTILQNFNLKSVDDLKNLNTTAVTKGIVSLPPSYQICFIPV

CYP 2C9 = CYP 2C9 (Homo sapiens, UniProt P11712)
CYP 2C9, sequence (P11712 whole entry): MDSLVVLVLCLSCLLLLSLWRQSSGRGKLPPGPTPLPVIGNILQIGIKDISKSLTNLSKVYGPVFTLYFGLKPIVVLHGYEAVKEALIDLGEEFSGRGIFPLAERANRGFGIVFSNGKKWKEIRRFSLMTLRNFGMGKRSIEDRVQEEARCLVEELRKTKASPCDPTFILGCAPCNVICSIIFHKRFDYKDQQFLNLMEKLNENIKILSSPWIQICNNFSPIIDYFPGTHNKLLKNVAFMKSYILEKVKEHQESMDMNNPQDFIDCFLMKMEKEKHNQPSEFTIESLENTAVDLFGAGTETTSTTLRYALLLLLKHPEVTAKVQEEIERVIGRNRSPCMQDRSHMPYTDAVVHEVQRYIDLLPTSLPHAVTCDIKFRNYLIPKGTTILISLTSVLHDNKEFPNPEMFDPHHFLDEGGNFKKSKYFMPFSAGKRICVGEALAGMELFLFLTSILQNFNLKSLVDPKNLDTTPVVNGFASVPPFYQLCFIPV

CYP 2C19 = CYP 2C19 (Homo sapiens, UniProt P33261)
CYP 2C19, sequence (P33261 whole entry): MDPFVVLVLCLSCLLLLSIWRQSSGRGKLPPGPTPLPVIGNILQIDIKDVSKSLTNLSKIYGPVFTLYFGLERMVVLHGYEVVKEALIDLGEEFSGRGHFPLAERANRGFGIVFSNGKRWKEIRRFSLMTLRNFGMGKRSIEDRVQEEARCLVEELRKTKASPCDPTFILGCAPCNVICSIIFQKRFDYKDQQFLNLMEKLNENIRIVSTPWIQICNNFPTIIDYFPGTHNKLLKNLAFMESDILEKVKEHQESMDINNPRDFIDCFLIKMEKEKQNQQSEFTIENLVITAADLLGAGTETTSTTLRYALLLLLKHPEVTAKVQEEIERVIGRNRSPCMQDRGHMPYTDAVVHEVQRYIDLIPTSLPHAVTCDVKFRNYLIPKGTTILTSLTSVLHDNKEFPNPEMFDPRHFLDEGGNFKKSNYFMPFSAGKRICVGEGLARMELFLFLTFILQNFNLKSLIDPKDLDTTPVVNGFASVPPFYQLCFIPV

CYP 2D6 = CYP 2D6 (Homo sapiens, UniProt P10635)
CYP 2D6, sequence (P10635 whole entry): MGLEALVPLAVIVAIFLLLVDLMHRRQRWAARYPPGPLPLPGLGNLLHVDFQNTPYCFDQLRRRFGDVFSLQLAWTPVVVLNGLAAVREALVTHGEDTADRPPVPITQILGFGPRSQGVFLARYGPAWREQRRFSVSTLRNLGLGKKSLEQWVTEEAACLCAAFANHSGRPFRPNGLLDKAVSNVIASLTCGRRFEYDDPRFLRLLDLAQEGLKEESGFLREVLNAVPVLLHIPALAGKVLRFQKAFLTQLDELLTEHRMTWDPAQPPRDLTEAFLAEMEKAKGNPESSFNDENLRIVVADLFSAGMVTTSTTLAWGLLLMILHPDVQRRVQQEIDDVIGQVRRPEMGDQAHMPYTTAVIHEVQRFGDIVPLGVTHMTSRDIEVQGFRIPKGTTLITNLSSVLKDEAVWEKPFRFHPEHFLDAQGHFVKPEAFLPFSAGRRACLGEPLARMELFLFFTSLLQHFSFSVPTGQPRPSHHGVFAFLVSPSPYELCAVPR

T1 sequence (P08183 whole entry): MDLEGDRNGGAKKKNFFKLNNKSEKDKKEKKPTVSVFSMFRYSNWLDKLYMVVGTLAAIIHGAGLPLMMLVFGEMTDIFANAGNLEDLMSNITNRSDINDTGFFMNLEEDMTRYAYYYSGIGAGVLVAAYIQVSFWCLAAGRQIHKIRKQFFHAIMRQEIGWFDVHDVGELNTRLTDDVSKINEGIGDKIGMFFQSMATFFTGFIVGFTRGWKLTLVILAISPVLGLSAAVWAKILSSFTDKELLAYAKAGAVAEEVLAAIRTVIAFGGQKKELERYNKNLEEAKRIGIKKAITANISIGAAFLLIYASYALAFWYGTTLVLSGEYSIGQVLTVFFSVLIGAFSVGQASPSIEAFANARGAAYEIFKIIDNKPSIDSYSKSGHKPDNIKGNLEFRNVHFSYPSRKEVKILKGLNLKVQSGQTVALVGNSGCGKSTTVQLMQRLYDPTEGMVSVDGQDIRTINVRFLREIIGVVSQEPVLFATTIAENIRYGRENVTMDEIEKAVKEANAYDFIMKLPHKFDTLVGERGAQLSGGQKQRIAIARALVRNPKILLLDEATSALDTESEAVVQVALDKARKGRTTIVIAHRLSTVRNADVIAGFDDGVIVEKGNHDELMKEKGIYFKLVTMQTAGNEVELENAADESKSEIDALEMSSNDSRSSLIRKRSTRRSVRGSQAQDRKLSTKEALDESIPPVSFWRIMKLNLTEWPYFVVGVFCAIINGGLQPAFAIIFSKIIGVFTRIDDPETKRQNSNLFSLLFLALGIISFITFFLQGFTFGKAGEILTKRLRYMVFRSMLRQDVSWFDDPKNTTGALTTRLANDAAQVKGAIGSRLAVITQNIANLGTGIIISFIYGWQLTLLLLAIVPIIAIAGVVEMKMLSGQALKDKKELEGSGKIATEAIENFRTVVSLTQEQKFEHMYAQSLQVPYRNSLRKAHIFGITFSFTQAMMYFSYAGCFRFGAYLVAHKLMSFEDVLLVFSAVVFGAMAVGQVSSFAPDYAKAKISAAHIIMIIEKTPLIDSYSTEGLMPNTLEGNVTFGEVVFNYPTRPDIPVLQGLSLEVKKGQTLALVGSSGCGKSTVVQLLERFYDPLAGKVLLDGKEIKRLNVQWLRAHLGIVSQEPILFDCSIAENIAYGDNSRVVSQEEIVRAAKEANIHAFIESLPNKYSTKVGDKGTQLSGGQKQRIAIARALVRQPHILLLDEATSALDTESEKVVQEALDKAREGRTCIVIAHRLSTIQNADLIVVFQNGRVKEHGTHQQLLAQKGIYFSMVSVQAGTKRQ

- substrate of membrane transport protein P-gp (P-gp [1]): possible substrate
- inhibitor of P-gp (P-gp [2]): weak inhibitor
- inhibition of CYP isozyme 1A2 (CYP 1A2): inhibits
- inhibition of CYP isozyme 2B6 (CYP 2B6): inhibits
- inhibition of CYP isozyme 2C8 (CYP 2C8): inhibits
- inhibition of CYP isozyme 2C9 (CYP 2C9): inhibits
- inhibition of CYP isozyme 2C19 (CYP 2C19): inhibits
- inhibition of CYP isozyme 2D6 (CYP 2D6): inhibits
- inhibition of CYP isozyme 3A4/5 (CYP 3A4/5): inhibits
Structure (SMILES): CN(C)c1ccc2nc3ccc(=[N+](C)C)cc-3sc2c1 [Methylene blue, Methylthioninium Chloride (Methylene Blue)]
